Eleven compounds from ChEMBL document CHEMBL1201862, “PubChem BioAssay data set” (2004) can be followed below.

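Five compound concentrations were applied to cells in 96-well plates for 48 hours; endpoints were derived by simple linear interpolation of the resulting dose-response curve. At the GI50, growth is halved.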 Calls of active or inactive are those of the source. Cut-off read from the data, not from the text of the source: active = GI50 up to about 1.1 µM and inactive = higher.

Test systems include CAKI-1; CCRF-CEM; COLO 205; HCC 2998; IGROV-1; MDA-N; Malme-3M; NCI-H226; NCI-H23; NCI-H460; OVCAR-5; RXF 393; SF-268; SF-539; SK-MEL-2; SN12C; SNB-75; TK-10; UO-31; PC-3.
Test in all cases: growth of human tumour cells (NCI), 48 h

As to `COc1ccc(-c2cc(=O)c3c(OC)c(OC)c(OC)cc3o2)cc1`, the GI50 with CAKI-1 is 68.7 µM (inactive); with CCRF-CEM, 14 µM (inactive); in the assay on COLO 205, 22.1 µM (inactive); with HCC 2998 it was 16.8 µM (inactive); with IGROV-1, 37.9 µM (inactive); in the assay on MDA-N, 40.6 µM (inactive). The GI50 is 38 µM (inactive) in the assay with Malme-3M; 27 µM (inactive) with NCI-H226; 40.6 µM (inactive) with NCI-H23; 24 µM (inactive) in the assay with NCI-H460; 44 µM (inactive) with OVCAR-5; 30.1 µM (inactive) in the assay with RXF 393. Moreover, the GI50 with SF-268 was 31.1 µM (inactive); in the assay with SF-539, 81.8 µM (inactive); with SK-MEL-2, 21.1 µM (inactive); with SN12C, 25.2 µM (inactive); in the assay on SNB-75 it was 26.9 µM (inactive); with TK-10, 36 µM (inactive). Moreover, the GI50 in the assay on UO-31 is 19 µM (inactive).
Take `COc1cc(OC)cc(-n2c(N)c(-c3nc4ccccc4s3)c3ccc([N+](=O)[O-])cc3c2=O)c1`: the GI50 with CAKI-1 is 31.8 µM (inactive); in the assay with CCRF-CEM, 69.7 µM (inactive); in the assay on COLO 205 it was 30.4 µM (inactive); with HCC 2998 it was 84.5 µM (inactive); with MDA-N it was > 100 µM (inactive); with Malme-3M, 32.5 µM (inactive). In addition, the GI50 in the assay with NCI-H226 was 25.7 µM (inactive); in the assay with NCI-H23 it was 77.4 µM (inactive); in the assay on NCI-H460, 32.7 µM (inactive); in the assay with SF-268 it was 57 µM (inactive); in the assay with SF-539 it was 13.4 µM (inactive); in the assay with SN12C, 18.4 µM (inactive). The GI50 in the assay with SNB-75 is 27.8 µM (inactive); with TK-10, 13.3 µM (inactive); in the assay on UO-31 it was 40.4 µM (inactive).
Turning to `CC#C[I+]c1ccccc1`, the GI50 was 14.1 µM (inactive) in the assay with CAKI-1; 4.17 µM (inactive) in the assay with CCRF-CEM; 12.9 µM (inactive) with COLO 205; 20 µM (inactive) with HCC 2998; 37.4 µM (inactive) with IGROV-1; 18.9 µM (inactive) in the assay on Malme-3M. Also, the GI50 was 33 µM (inactive) with NCI-H226; 18.1 µM (inactive) in the assay on NCI-H23; 35.5 µM (inactive) with NCI-H460; 32.7 µM (inactive) with OVCAR-5; 19.1 µM (inactive) with RXF 393; 19.1 µM (inactive) with SF-268. The GI50 is 18.2 µM (inactive) in the assay with SF-539; 28.1 µM (inactive) in the assay with SK-MEL-2; 12.3 µM (inactive) in the assay with SN12C; 50 µM (inactive) with SNB-75; 16.4 µM (inactive) in the assay with TK-10; 30.3 µM (inactive) with UO-31.
Consider `CCO/C=C1\N=C(C(Cl)c2ccccc2)OC1=O` (stereo not drawn), for which the GI50 in the assay with CAKI-1, in the assay with CCRF-CEM, with COLO 205, in the assay with HCC 2998, with IGROV-1 and in the assay with Malme-3M was > 100 µM (inactive) each time. The GI50 in the assay on NCI-H226, in the assay on NCI-H23, in the assay on NCI-H460, in the assay on OVCAR-5, in the assay with RXF 393 and with SF-268 was > 100 µM (inactive) in each case. The GI50 in the assay on SF-539, with SK-MEL-2, in the assay with SN12C, in the assay on SNB-75, in the assay on TK-10 and in the assay with UO-31 was > 100 µM (inactive) throughout.
For `COc1cc(/C=C2\NC(=O)C(Cc3cc(OC)c(OC)c(C)c3OC)N(C(C)=O)C2=O)c(OC)c(C)c1OC` (stereo not drawn), the GI50 with CAKI-1 was 54.8 µM (inactive); in the assay on CCRF-CEM, 45.2 µM (inactive); with COLO 205 it was 54.7 µM (inactive); in the assay on HCC 2998 it was > 100 µM (inactive); in the assay with IGROV-1, > 100 µM (inactive); with Malme-3M, 83.6 µM (inactive). The GI50 in the assay on NCI-H226 is 59.2 µM (inactive); in the assay with NCI-H23, > 100 µM (inactive); in the assay on NCI-H460, 43.4 µM (inactive); in the assay with OVCAR-5, > 100 µM (inactive); with RXF 393, 95.5 µM (inactive); in the assay on SF-268, > 100 µM (inactive). For the same compound, the GI50 with SF-539 was > 100 µM (inactive); in the assay on SK-MEL-2, 96.4 µM (inactive); in the assay on SN12C it was > 100 µM (inactive); in the assay on SNB-75 it was > 100 µM (inactive); in the assay with TK-10, > 100 µM (inactive); with UO-31, 85.1 µM (inactive).
For the compound `CC12CC3c4ccccc4CN1C3(c1ccccc1)OC2=O` (stereo not drawn), the GI50 in the assay on CAKI-1, in the assay with CCRF-CEM, with COLO 205, in the assay with IGROV-1, with Malme-3M and in the assay with NCI-H226 was > 100 µM (inactive) each time. Further, the GI50 in the assay on NCI-H23, in the assay on OVCAR-5, with PC-3, in the assay with RXF 393, with SF-268 and in the assay on SF-539 was > 100 µM (inactive) each time. The GI50 in the assay on SK-MEL-2, with SN12C, in the assay with SNB-75, in the assay with TK-10 and in the assay on UO-31 was > 100 µM (inactive) in each case.
On to `[O-][n+]1ccccc1Sc1nc(Sc2cccc[n+]2[O-])nc(Sc2cccc[n+]2[O-])n1`, for which the GI50 was 0.9 µM (active) in the assay on CAKI-1; 0.198 µM (active) in the assay on CCRF-CEM; 0.386 µM (active) in the assay with COLO 205; 1.51 µM (inactive) with HCC 2998; 0.54 µM (active) in the assay with IGROV-1; 1.95 µM (inactive) with Malme-3M. For the same compound, the GI50 with NCI-H226 was 2.42 µM (inactive); in the assay with NCI-H23, 1.36 µM (inactive); in the assay with NCI-H460, 1.88 µM (inactive); with OVCAR-5, 1.7 µM (inactive); with PC-3, 0.726 µM (active); with RXF 393, 0.444 µM (active). In addition, the GI50 in the assay on SF-268 is 2.99 µM (inactive); with SF-539, 2.06 µM (inactive); with SK-MEL-2 it was 1.8 µM (inactive); with SN12C it was 1.81 µM (inactive); in the assay with SNB-75, 4.2 µM (inactive); with TK-10, 1.76 µM (inactive). In addition, in the assay with UO-31, the GI50 was 1.77 µM (inactive).
Turning to `CCNc1ccc2c(c1)Cc1ccccc1-2`, the GI50 with CAKI-1 was 27.2 µM (inactive); with CCRF-CEM it was > 100 µM (inactive); in the assay on COLO 205, 64.9 µM (inactive); in the assay on HCC 2998 it was 9.71 µM (inactive); with IGROV-1, 37 µM (inactive); in the assay with Malme-3M, 67.9 µM (inactive). Also, the GI50 is 54.7 µM (inactive) in the assay on NCI-H226; 14.3 µM (inactive) in the assay with NCI-H23; 18 µM (inactive) with NCI-H460; > 100 µM (inactive) in the assay on OVCAR-5; 35.4 µM (inactive) with PC-3; > 100 µM (inactive) in the assay on RXF 393. For the same compound, the GI50 with SF-268 was 46.2 µM (inactive); with SF-539, 43.8 µM (inactive); in the assay with SK-MEL-2, 56.1 µM (inactive); in the assay with SN12C, 64 µM (inactive); in the assay on SNB-75, > 100 µM (inactive); in the assay with TK-10, 33.1 µM (inactive). The GI50 with UO-31 is 52.4 µM (inactive).
For the compound `CC#C[P+](c1ccccc1)(c1ccccc1)c1ccccc1`, the GI50 in the assay with CAKI-1 was 3.24 µM (inactive); with CCRF-CEM it was 0.693 µM (active); in the assay with COLO 205 it was 1.35 µM (inactive); in the assay with HCC 2998 it was 3.52 µM (inactive); in the assay on IGROV-1 it was 6.95 µM (inactive); with Malme-3M it was 10.4 µM (inactive). In addition, the GI50 in the assay with NCI-H226 was 3.13 µM (inactive); in the assay with NCI-H23, 2.06 µM (inactive); in the assay with NCI-H460 it was 2.48 µM (inactive); in the assay on OVCAR-5, 8.55 µM (inactive); in the assay on RXF 393, 5.25 µM (inactive); with SF-268, 2.09 µM (inactive). The GI50 is 2.25 µM (inactive) in the assay with SF-539; 1.56 µM (inactive) in the assay with SK-MEL-2; 1.12 µM (inactive) in the assay on SN12C; 2.43 µM (inactive) in the assay on SNB-75; 4.09 µM (inactive) in the assay on TK-10; 7.41 µM (inactive) with UO-31.
For the compound `CC1=NN(C(=O)CC(=O)Nc2ccccc2)C(=O)C1/N=N/c1ccc(S(N)(=O)=O)cc1` (stereo not drawn), the GI50 in the assay on CAKI-1 is 50.8 µM (inactive); with CCRF-CEM it was 46 µM (inactive); in the assay on COLO 205 it was > 100 µM (inactive); with HCC 2998, 49.9 µM (inactive); in the assay with IGROV-1 it was 34.7 µM (inactive); in the assay on Malme-3M it was > 100 µM (inactive). The GI50 in the assay with NCI-H226 is 39.1 µM (inactive); with NCI-H23, 78 µM (inactive); with NCI-H460, 92.5 µM (inactive); in the assay on OVCAR-5, > 100 µM (inactive); in the assay on RXF 393 it was 70.8 µM (inactive); in the assay with SF-268, 80.9 µM (inactive). Besides, the GI50 in the assay with SF-539 is 99.8 µM (inactive); in the assay with SK-MEL-2 it was > 100 µM (inactive); in the assay with SN12C, 41.9 µM (inactive); with SNB-75, 60.8 µM (inactive); in the assay on TK-10, > 100 µM (inactive); with UO-31 it was 57.8 µM (inactive).
Turning to `CCOC(=O)CCC(C(=O)OCC)n1nnc2ccc(Nc3c(C)[n+]([O-])c4cc(Cl)ccc4[n+]3[O-])cc21` (stereo not drawn), the GI50 is 34.4 µM (inactive) in the assay with CAKI-1; 29.1 µM (inactive) in the assay with CCRF-CEM; 19.3 µM (inactive) in the assay on COLO 205; 16.8 µM (inactive) in the assay with HCC 2998; 27.7 µM (inactive) in the assay with IGROV-1; 17.3 µM (inactive) in the assay with Malme-3M. For the same compound, the GI50 with NCI-H226 was 26.5 µM (inactive); with NCI-H23 it was 24.8 µM (inactive); with NCI-H460, 35.3 µM (inactive); in the assay with OVCAR-5 it was 46.5 µM (inactive); with PC-3, 53.8 µM (inactive); in the assay with RXF 393 it was 22.4 µM (inactive). Moreover, the GI50 in the assay with SF-268 is 18.8 µM (inactive); with SF-539, 19.9 µM (inactive); in the assay with SK-MEL-2 it was 21.7 µM (inactive); in the assay with SN12C, 24.5 µM (inactive); in the assay on SNB-75, 44.7 µM (inactive); in the assay with TK-10, 71.8 µM (inactive). For the same compound, the GI50 in the assay with UO-31 is 34.8 µM (inactive).
